{"source": "patent US8735364B2", "about": "“Antisense modulation of apolipoprotein B expression” (Genzyme Corporation, priority 2001, dated 2014)", "key": {"[1]": {"assay": "Body, spleen, liver and fat pad weight, high fat fed mice, 6 week study", "type": "in vivo, mouse", "conditions": "20 mg/kg daily, compared to saline-treated controls", "description": "(§1) Male C57BL/6 mice (n=8) receiving a high fat diet (60% kcal fat) were evaluated over the course of 6 weeks for the effects of treatment with the antisense oligonucleotide, ISIS 147764. Control animals received saline treatment (50 mg/kg). A subset of animals received a daily oral dose (20 mg/kg) atorvastatin calcium (Lipitor®, Pfizer Inc.). All mice, except atorvastatin-treated animals, were dosed intraperitoneally every three days (twice a week), after fasting overnight, with 5, 25, 50 mg/kg ISIS 147764 (SEQ ID No: 109) or saline (50 mg/kg) for six weeks. Serum cholesterol and lipoproteins were analyzed at 0, 2 and 6 week interim timepoints. At study termination, animals were sacrificed 48 hours after the final injections and evaluated for levels of target mRNA levels in liver, cholesterol, lipoprotein, triglyceride, liver enzyme (AST and ALT) and serum glucose levels as well as body, liver, spleen and fat pad weights.\n(§2) Male C57BL/6 mice (n=8) receiving a high fat diet (60% kcal fat) were evaluated over the course of 6 weeks for the effects of ISIS 147764 on body, spleen, liver and fat pad weight. Control animals received saline treatment (50 mg/kg). Mice were dosed intraperitoneally every three days (twice a week), after fasting overnight, with 5, 25, 50 mg/kg ISIS 147764 (SEQ ID No: 109) or saline (50 mg/kg) for six weeks.\nAt study termination, animals were sacrificed 48 hours after the final injections and body, spleen, liver and fat pad weights were measured. Values are expressed as percent change in body weight or ogan weight compared to the saline-treated control animals. Data from mice treated with atorvastatin at a daily dose of 20 mg/kg are also shown in the table Negative values indicated a decrease in weight."}, "[2]": {"assay": "Liver enzyme levels in ApoE knockout mice", "type": "in vivo, mouse", "excerpt": "Female ApoE knockout mice ranged in age from 5 to 7 weeks and were placed on a normal diet for 2 weeks before study initiation. ApoE knockout mice were then fed ad libitum a 60% fat diet, with 0.15% added cholesterol to induce dyslipidemia and obesity. […]\nAt study termination and forty eight hours after the final injections, animals were sacrificed and evaluated for target mRNA levels in liver by RT-PCR methods verified by Northern Blot analysis, glucose levels, cholesterol and lipid levels by HPLC separation methods and triglyceride and liver enzyme levels (perfomed by LabCorp Preclinical Services; San Diego, Calif.). Data are normalized to saline controls."}, "[3]": {"assay": "Serum AST and ALT levels, high fat fed mice, 6 week study", "type": "in vivo, mouse", "conditions": "daily oral dose of 20 mg/kg", "description": "as §1\nas §2, with “on” for “on body, spleen,”, “liver enzyme (AST” for “liver”, “ALT) levels.” for “fat pad weight.”\nValues in the table are expressed as IU/L. Increased levels of the liver enzymes ALT and AST indicate toxicity and liver damage."}, "[4]": {"tested_on": "human apolipoprotein B mRNA", "assay": "Inhibition of human apolipoprotein B mRNA levels in HepG2 cells, quantitative real-time PCR", "type": "cell-based", "parameters": "%INHIB of human apolipoprotein B mRNA levels: concentration or dose not given beside the values", "conditions": "for %INHIB of human apolipoprotein B mRNA levels: averages from two experiments", "description": "The human hepatoblastoma cell line HepG2 was obtained from the American Type Culture Collection (Manassas, Va.). HepG2 cells were routinely cultured in Eagle's MEM supplemented with 10% fetal calf serum, non-essential amino acids, and 1 mM sodium pyruvate (Gibco/Life Technologies, Gaithersburg, Md.). Cells were routinely passaged by trypsinization and dilution when they reached 90% confluence. Cells were seeded into 96-well plates (Falcon-Primaria #3872) at a density of 7000 cells/well for use in RT-PCR analysis.\nWhen cells reached 80% confluency, they were treated with oligonucleotide. For cells grown in 96-well plates, wells were washed once with 200 μL OPTI-MEM™-1 reduced-serum medium (Gibco BRL) and then treated with 130 μL of OPTI-MEM™-1 containing 3.75 μg/mL LIPOFECTIN™ (Gibco BRL) and the desired concentration of oligonucleotide. After 4-7 hours of treatment, the medium was replaced with fresh medium. Cells were harvested 16-24 hours after oligonucleotide treatment.\nQuantitation of apolipoprotein B mRNA levels was determined by real-time quantitative PCR using the ABI PRISM™ 7700 Sequence Detection System (PE-Applied Biosystems, Foster City, Calif.) according to manufacturer's instructions. This is a closed-tube, non-gel-based, fluorescence detection system which allows high-throughput quantitation of polymerase chain reaction (PCR) products in real-time. As opposed to standard PCR, in which amplification products are quantitated after the PCR is completed, products in real-time quantitative PCR are quantitated as they accumulate. This is accomplished by including in the PCR reaction an oligonucleotide probe that anneals specifically between the forward and reverse PCR primers, and contains two fluorescent dyes. A reporter dye (e.g., JOE, FAM, or VIC, obtained from either Operon Technologies Inc., Alameda, Calif. or PE-Applied Biosystems, Foster City, Calif.) is attached to the 5′ end of the probe and a quencher dye (e.g., TAMRA, obtained from either Operon Technologies Inc., Alameda, Calif. or PE-Applied Biosystems, Foster City, Calif.) is attached to the 3′ end of the probe. When the probe and dyes are intact, reporter dye emission is quenched by the proximity of the 3′ quencher dye. During amplification, annealing of the probe to the target sequence creates a substrate that can be cleaved by the 5′-exonuclease activity of Taq polymerase. […] With each cycle, additional reporter dye molecules are cleaved from their respective probes, and the fluorescence intensity is monitored at regular intervals by laser optics built into the ABI PRISM™ 7700 Sequence Detection System. In each assay, a series of parallel reactions containing serial dilutions of mRNA from untreated control samples generates a standard curve that is used to quantitate the percent inhibition after antisense oligonucleotide treatment of test samples.\nPCR reagents were obtained from PE-Applied Biosystems, Foster City, Calif. RT-PCR reactions were carried out by adding 25 μL PCR cocktail (1× TAQMAN™ buffer A, 5.5 mM MgCl2, 300 μM each of DATP, dCTP and dGTP, 600 μM of dUTP, 100 nM each of forward primer, reverse primer, and probe, 20 Units RNAse inhibitor, 1.25 Units AMPLITAQ GOLD™, and 12.5 Units MuLV reverse transcriptase) to 96 well plates containing 25 μL total RNA solution. The RT reaction was carried out by incubation for 30 minutes at 48° C. Following a 10 minute incubation at 95° C. to activate the AMPLITAQ GOLD™, 40 cycles of a two-step PCR protocol were carried out: 95° C. for 15 seconds (denaturation) followed by 60° C. for 1.5 minutes (annealing/extension).\nGene target quantities obtained by real time RT-PCR are normalized using either the expression level of GAPDH, a gene whose expression is constant, or by quantifying total RNA using RiboGreen™ (Molecular Probes, Inc. Eugene, Oreg.). GAPDH expression is quantified by real time RT-PCR, by being run simultaneously with the target, multiplexing, or separately. […]"}}, "note": "Oligonucleotides are written 5' to 3', each unit as a sugar letter and its base; * is a phosphorothioate linkage, no mark a phosphodiester; rarer units and linkages stand in square brackets, end groups in braces. Plain capitals give the bases only. e = 2'-O-(2-methoxyethyl) (MOE); [5mC] = 5-methylcytosine; d = 2'-deoxy (DNA)"}
{"compound": "CC(C)c1c(C(=O)Nc2ccccc2)c(-c2ccccc2)c(-c2ccc(F)cc2)n1CC[C@@H](O)C[C@@H](O)CC(=O)O", "note": "[atorvastatin, atorvastatin calcium, reference compound]", "values": [{"measurement": "Fat pad weight Percent Change", "setting": "[1]", "result": 7, "unit": "%"}, {"measurement": "Liver weight Percent Change", "setting": "[1]", "result": 15, "unit": "%"}, {"measurement": "Spleen weight Percent Change", "setting": "[1]", "result": 10, "unit": "%"}, {"measurement": "Total Body Wt. Percent Change", "setting": "[1]", "result": 1, "unit": "%"}, {"measurement": "Liver Enzyme Levels ALT", "setting": "[2]; 20 mg/kg daily, Control 56", "result": 76, "unit": "IU/L"}, {"measurement": "Liver Enzyme Levels AST", "setting": "[2]; Control 55", "result": 75, "unit": "IU/L"}, {"measurement": "AST levels", "setting": "[3]; printed in the ALT paragraph", "result": 40, "unit": "IU/L"}, {"measurement": "AST levels", "setting": "[3]; saline control 65 IU/L", "result": 85, "unit": "IU/L"}]}
{"compound": "147818 (antisense eA*eG*eT*eG*eA*dT*dG*dG*dA*dA*dG*d[5mC]*dT*dG*d[5mC]*eG*eA*eT*eA*e[5mC]) [compound 147818]", "values": [{"measurement": "%INHIB of human apolipoprotein B mRNA levels", "setting": "[4]", "result": 30, "unit": "%"}]}
{"compound": "147785 (antisense eG*e[5mC]*e[5mC]*e[5mC]*eG*d[5mC]*d[5mC]*dA*dG*d[5mC]*dA*dG*d[5mC]*dA*dG*e[5mC]*eA*eG*e[5mC]*eA) [compound 147785]", "values": [{"measurement": "%INHIB of human apolipoprotein B mRNA levels", "setting": "[4]", "result": 29, "unit": "%"}]}
{"compound": "147806 (antisense eA*eT*eG*eT*eG*dG*dT*dA*dA*d[5mC]*dG*dA*dG*d[5mC]*d[5mC]*e[5mC]*eG*eA*eA*eG) [compound 147806]", "values": [{"measurement": "Percent Inhibition of human apolipoprotein B mRNA levels", "setting": "[4]; 50 nM", "result": 23, "unit": "%"}, {"measurement": "Percent Inhibition of human apolipoprotein B mRNA levels", "setting": "[4]; 150 nM", "result": 45, "unit": "%"}, {"measurement": "Percent Inhibition of human apolipoprotein B mRNA levels", "setting": "[4]; 250 nM", "result": 28, "unit": "%"}, {"measurement": "%INHIB of human apolipoprotein B mRNA levels", "setting": "[4]", "result": 100, "unit": "%"}]}
{"compound": "147807 (antisense eG*eG*e[5mC]*eG*eT*dA*dG*dA*dG*dA*d[5mC]*d[5mC]*d[5mC]*dA*dT*e[5mC]*eA*e[5mC]*eA*eT) [compound 147807]", "values": [{"measurement": "%INHIB of human apolipoprotein B mRNA levels", "setting": "[4]", "result": 25, "unit": "%"}]}
{"compound": "147820 (antisense eG*eA*eA*e[5mC]*eA*d[5mC]*dA*dT*dA*dG*d[5mC]*d[5mC]*dG*dA*dA*eT*eG*e[5mC]*e[5mC]*eG) [compound 147820]", "values": [{"measurement": "Percent Inhibition of human apolipoprotein B mRNA levels", "setting": "[4]; 50 nM", "result": 10, "unit": "%"}, {"measurement": "Percent Inhibition of human apolipoprotein B mRNA levels", "setting": "[4]; 150 nM", "result": 0, "unit": "%"}, {"measurement": "Percent Inhibition of human apolipoprotein B mRNA levels", "setting": "[4]; 250 nM", "result": 73, "unit": "%"}, {"measurement": "%INHIB of human apolipoprotein B mRNA levels", "setting": "[4]", "result": 100, "unit": "%"}]}
{"compound": "147829 (antisense eT*eA*eT*eA*eT*d[5mC]*d[5mC]*d[5mC]*dA*dG*dG*dT*dT*dT*d[5mC]*e[5mC]*e[5mC]*e[5mC]*eG*eG) [compound 147829]", "values": [{"measurement": "%INHIB of human apolipoprotein B mRNA levels", "setting": "[4]", "result": 64, "unit": "%"}]}
{"compound": "147823 (antisense eT*eG*e[5mC]*e[5mC]*e[5mC]*dT*dG*d[5mC]*dA*dG*d[5mC]*dT*dT*d[5mC]*dA*e[5mC]*eT*eG*eA*eA) [compound 147823]", "values": [{"measurement": "%INHIB of human apolipoprotein B mRNA levels", "setting": "[4]", "result": 19, "unit": "%"}]}
